Results: US4141986A, “Antibiotics 890A2 and 890A5” (Merck & Co., Inc., priority 1977, dated 1979)

Columns and labels:
[1] = test system: Streptococcus faecalis MB-753; assay: In vitro antibacterial spectrum profile, agar diffusion; type: cell-based; conditions: Enterococcus faecalis, MB753, read-out: Inhib. Zone Diam.
Solubility in water = type: physicochemical; conditions: sodium salt, white powder as lyophilized
[2] = test system: Salmonella schottmuellari MB-2837; assay: In vivo protection of intraperitoneally infected mice; conditions: ip, at the time of infection and again 6 hours later; sample of 59 units/ml.; survival data of the seventh day
Experimental: In determining the in vivo activity, antibiotic 890A2 is dissolved in 0.15M NaCl, 0.01M sodium phosphate, pH 7.0, and diluted with water to provide five fourfold concentrations of drug for testing. Female white Swiss mice, averaging about 21 g. in weight, were infected intraperitoneally with the test organism suspended in broth. The numbers of organisms injected were determined by standard plate-count techniques. At the time of infection and again 6 hours later, certain of the mice were treated intraperitoneally with the antibiotic. Five mice were used for each concentration of drug tested. An additional two mice, not infected, were treated with the antibiotic to determine whether the amount of agent injected was toxic. Controls of five mice for each of several dilutions of the infecting culture were included in each test in order to calculate the numbers of organisms that were lethal to 50% of the infected, untreated mice (LD50). This calculation was made using survival data of the seventh day after infection, at which time the amount of drug that should protect 50% of the infected mice (ED50) also was calculated.
All animals receiving this challenge and not treated with antibiotic died within 48 hours of the infection. The efficacy of antibiotic 890A2, having a potency of 59 units/ml., against Salmonella schottmuellari MB-2837 is set forth below: […]

[3] = test system: Streptococcus agalactiae MB-2875; assay: In vitro antibacterial spectrum profile, agar diffusion; type: cell-based; conditions: read-out: Inhib. Zone Diam.
[4] = test system: Proteus vulgaris ATCC 21100; assay: as above; type: cell-based; conditions: read-out: Inhib. Zone Diam.
[5] = Stability during desalting on Sephadex G-10; type: physicochemical; conditions: pooled fractions at pH 4.1; A308/A260 ratio of 0.76
Experimental: Fractions 112 through 130 containing 890A2, are concentrated under reduced pressure to 5.5 ml. and the concentrate is applied to a column (2.15 × 70 cm.) of Sephadex G-10, and eluted with deionized water at a flow rate of 1 ml. per minute. Fractions of 2.85 ml. each are collected. The bioactivity as determined by assay against Salmonella gallinarum MB1287 appears in fractions 60 through 98. Fractions 78 through 90 have the highest A308 /A260 ratios, and these are pooled for lyophilization. The pH of the pooled fractions is 4.1, and is adjusted to 7.8 by addition of 8 μl of 1M ammonia.

[6] = test system: Alcaligenes faecalis ATCC 213; assay: In vitro antibacterial spectrum profile, agar diffusion; type: cell-based; conditions: read-out: Inhib. Zone Diam.
[7] = test system: Vibrio percolans ATCC 8461; assay: Bioassay I, agar plate disc-diffusion potency per HAEA308 unit; type: cell-based; conditions: Vibrio percolans ATCC 8461, Bioassay I
Experimental: An agar plate disc-diffusion method is employed using either Vibrio percolans ATCC 8461 or Salmonella gallinarum MB-1287 as tester organism. A purified sample of antibiotic 890A1 is used as standard. Antibiotic 890A1 is prepared according to the procedure set forth in Example 5.
Plates containing Vibrio percolans ATCC 8461 are prepared as follows:
A lyophilized culture of Vibrio percolans ATCC 8461 is suspended in 15 ml. of a sterilized medium containing 8 g./liter of Difco Nutrient Broth and 2 g./liter of yeast extract in distilled water "nutrient broth-yeast extract" (herein after designated NBYE). The culture is incubated overnight on a rotary shaker at 28° C. […]
Filter paper discs of one-half inch diameter are dipped into the solution to be assayed, and are placed on the agar. […] The diameter of the zone of inhibition is measured after appropriate incubation (9-18 hours at 37° C. for Salmonella gallinarum MB-1287 or 12-24 hours at 25° C. for Vibrio percolans ATCC 8461.) If necessary, dilutions of the solutions to be assayed are made in 0.05M potassium phosphate buffer, pH 7.4 "potassium phosphate buffer" (hereinafter referred to as KPB), or in deionized water.
Calculations of potencies proceed as follows: a slope is determined by measuring the zone diameters of a solution of antibiotic 890A2 or 890A5 and of a four-fold dilution (in KPB) of this solution. […]

SMILES	zone of inhibition at 5 µg/mL ([1]; 890A2 5 μg./ml., 1/4 inch paper disc) [mm]	solubility in water (Solubility in water)	ED50 × 2 doses [2] [Units]	zone of inhibition at 5 µg/mL ([3]; MB2875, 890A2 5 μg./ml., 1/4 inch paper disc) [mm]	zone of inhibition at 5 µg/mL ([4]; ATCC21100, 890A2 5 μg./ml., 1/4 inch paper disc) [mm]	stability during Sephadex G-10 desalting [5]	zone of inhibition at 5 µg/mL ([6]; ATCC213, 890A2 5 μg./ml., 1/4 inch paper disc) [mm]	zone of inhibition at 33 µg/mL ([1]; 890A5 33 μg./ml., 0.015 ml. droplet) [mm]	zone of inhibition at 33 µg/mL ([3]; MB2875, 890A5 33 μg./ml., 0.015 ml. droplet) [mm]	antibiotic potency (ratio of bioactivity to HAEA308) [7] [units per HAEA308 unit]	zone of inhibition at 33 µg/mL ([4]; ATCC21100, 890A5 33 μg./ml., 0.015 ml. droplet) [mm]	zone of inhibition at 33 µg/mL ([6]; ATCC213, 890A5 33 μg./ml., 0.015 ml. droplet) [mm]
CC(=O)NC=CSC1=C(C(=O)O)N2C(=O)C(C(C)O)C2C1 (stereo not drawn) [Antibiotic 890A2]	12	very soluble in water	19	32	30	substantial degradation	34					
CC(=O)NC=CSC1=C(C(=O)O)N2C(=O)C(C(C)O)C2C1 (stereo not drawn) [Antibiotic 890A5]								0	27	12	27	25
